EC50 data for nine compounds are collected here from patent US12577206B2 (BRISTOL-MYERS SQUIBB COMPANY, priority 2020, dated 2026).

Some results are limits rather than exact numbers.

For test [1], the target named is T1, human FPR2 (Homo sapiens, UniProt P25090).
T1 sequence (P25090 1-351): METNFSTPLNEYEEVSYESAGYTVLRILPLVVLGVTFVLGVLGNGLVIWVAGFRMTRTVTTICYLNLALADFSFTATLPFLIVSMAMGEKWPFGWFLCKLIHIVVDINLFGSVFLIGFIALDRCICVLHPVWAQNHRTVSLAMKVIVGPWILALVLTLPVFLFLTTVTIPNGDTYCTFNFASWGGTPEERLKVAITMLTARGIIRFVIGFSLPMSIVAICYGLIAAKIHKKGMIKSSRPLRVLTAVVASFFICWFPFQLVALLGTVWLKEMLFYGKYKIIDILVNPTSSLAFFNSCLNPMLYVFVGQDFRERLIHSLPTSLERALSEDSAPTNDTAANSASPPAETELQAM
Kind of test: FPR2 cyclic adenosine monophosphate (cAMP) assay. It is filed as cell-based. Particulars: CHO cells overexpressing human FPR2; forskolin 5 μM; inhibition of cAMP production; HTRF; read-out: hFPR2 cAMP2 EC50. Put shortly:
(§1)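 Gi-coupled activity is read as suppression of forskolin-stimulated cAMP (10 μM final for FPR1, 5 μM final for FPR2; IBMX 200 μM final) in recombinant CHO cells, 30 min incubation at rt, HTRF detection.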
Background: Cyclic AMP is a second messenger, typically raised through Gs and lowered through Gi signalling.

For test [2], the target named is T2, human FPR1 (Homo sapiens, UniProt P21462).
T2 sequence (P21462 1-350): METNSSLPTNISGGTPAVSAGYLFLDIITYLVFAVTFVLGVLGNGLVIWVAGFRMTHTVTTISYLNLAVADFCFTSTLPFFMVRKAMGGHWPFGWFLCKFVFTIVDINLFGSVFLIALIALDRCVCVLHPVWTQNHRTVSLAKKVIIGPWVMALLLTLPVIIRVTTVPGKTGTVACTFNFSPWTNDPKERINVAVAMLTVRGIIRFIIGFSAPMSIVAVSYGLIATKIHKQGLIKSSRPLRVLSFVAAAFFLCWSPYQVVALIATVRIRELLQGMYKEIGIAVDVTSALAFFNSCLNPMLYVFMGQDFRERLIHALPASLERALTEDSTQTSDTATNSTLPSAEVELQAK
Put plainly: FPR1 cyclic adenosine monophosphate (cAMP) assay. Particulars: CHO cells overexpressing human FPR1; forskolin 10 μM; inhibition of cAMP production; HTRF; read-out: hFPR1 cAMP2 EC50. The format is cell-based. Put shortly: as §1

With `COc1cc(F)c(-c2c(NC(=O)c3ccc(OC(F)F)cc3)c(=O)n(-c3cc(Cl)ccc3Cl)n2C)c(F)c1` [Example 176, N-[2-(2,5-dichlorophenyl)-5-(2,6-difluoro-4-methoxyphenyl)-1-methyl-3-oxo-2,3-dihydro-1H-pyrazol-4-yl]-4-(difluoromethoxy)benzamide], the results for the EC50 in test [1] and in test [2] were 9 nM and more than 10000 nM, respectively.

As for `COc1ccc(-c2c(NC(=O)c3ccc(OC(F)F)cc3)c(=O)n(-c3nc(N4CCC(C)(O)CC4)ccc3C(F)(F)F)n2C)c(F)c1` [Example 313, 4-(difluoromethoxy)-N-[5-(2-fluoro-4-methoxyphenyl)-2-[6-(4-hydroxy-4-methylpiperidin-1-yl)-3-(trifluoromethyl)pyridin-2-yl]-1-methyl-3-oxo-2,3-dihydro-1H-pyrazol-4-yl]benzamide], the 50% effective concentration (EC50) (usually the concentration at which the effect is half-maximal) in test [1] was 1 nM; in test [2] it was 210 nM.

`COc1cc(F)c(-c2c(NC(=O)c3ccc(OC(F)F)cc3)c(=O)n(-c3nc(N4CCC[C@H]4C(N)=O)ccc3C(F)(F)F)n2C)c(F)c1` [Example 216, (2S)-1-{6-[3-(2,6-difluoro-4-methoxyphenyl)-4-[4-(difluoromethoxy)benzamido]-2-methyl-5-oxo-2,5-dihydro-1H-pyrazol-1-yl]-5-(trifluoromethyl)pyridin-2-yl}pyrrolidine-2-carboxamide]: the EC50 in test [1] is 6 nM; in test [2], more than 10000 nM.

On to `Cn1c(-c2ccc(OC(F)F)cc2)c(NC(=O)c2ccc(OC(F)F)cc2)c(=O)n1-c1nc(Cl)ccc1C(F)(F)F` [Example 317, N-{2-[6-chloro-3-(trifluoromethyl)pyridin-2-yl]-5-[4-(difluoromethoxy)phenyl]-1-methyl-3-oxo-2,3-dihydro-1H-pyrazol-4-yl}-4-(difluoromethoxy)benzamide], for which the half-maximal effective concentration (EC50) came out at 14 nM in test [1] and 1800 nM in test [2].

Turning to `COc1ccc(-c2c(NC(=O)c3ccc(OC(F)F)cc3)c(=O)n(-c3ncccc3C(F)(F)F)n2C)cc1C` [Example 246, 4-(difluoromethoxy)-N-(5-(4-methoxy-3-methylphenyl)-1-methyl-3-oxo-2-(3-(trifluoromethyl)pyridin-2-yl)-2,3-dihydro-1H-pyrazol-4-yl)benzamide], the EC50 was 315 nM in test [1] and more than 10000 nM in test [2].

Take `COc1cc(F)c(-c2c(NC(=O)c3ccc(OC(F)F)cc3)c(=O)n(-c3cccc(N4CCN(CCS(C)(=O)=O)CC4)n3)n2C)c(F)c1` [Example 206, N-[5-(2,6-difluoro-4-methoxyphenyl)-2-{6-[4-(2-methanesulfonylethyl)piperazin-1-yl]pyridin-2-yl}-1-methyl-3-oxo-2,3-dihydro-1H-pyrazol-4-yl]-4-(difluoromethoxy)benzamide]: the EC50 was 44 nM in test [1] and more than 5000 nM in test [2].

Regarding `CCc1ccc(OCC(C)(C)O)nc1-n1c(=O)c(NC(=O)c2ccc(OC(F)F)cc2)c(-c2c(F)cc(OC)cc2F)n1C` [Example 309, N-[5-(2,6-difluoro-4-methoxyphenyl)-2-[3-ethyl-6-(2-hydroxy-2-methylpropoxy)pyridin-2-yl]-1-methyl-3-oxo-2,3-dihydro-1H-pyrazol-4-yl]-4-(difluoromethoxy)benzamide], the EC50 stood at 10 nM in test [1] and 2200 nM in test [2].

Turning to `COc1cc(F)c(-c2c(NC(=O)c3ccc(OC(F)F)cc3)c(=O)n(-c3cc(OCC(C)O)cc(C)n3)n2C)c(F)c1` (stereo not drawn) [Example 393, N-(5-(2,6-Difluoro-4-methoxyphenyl)-2-(4-(2-hydroxypropoxy)-6-methylpyridin-2-yl)-1-methyl-3-oxo-2,3-dihydro-1H-pyrazol-4-yl)-4-(difluoromethoxy)benzamide], the EC50 in test [1] was found to be 15 nM; in test [2], 2800 nM.

Consider `COc1cc(F)c(-c2c(NC(=O)c3ccc(OC(F)F)cc3)c(=O)n(-c3ccc(C)cn3)n2C)c(F)c1` [Example 49, N-[5-(2,6-difluoro-4-methoxyphenyl)-1-methyl-2-(5-methylpyridin-2-yl)-3-oxo-2,3-dihydro-1H-pyrazol-4-yl]-4-(difluoromethoxy)benzamide], for which the half-maximal effective concentration (EC50) in test [1] was found to be 55 nM; in test [2] it was 6800 nM.
